Assay results published in paper PMC11214964 (Biomolecules & Therapeutics, 2024).
pKi: −log10 of the molar value. Read-outs that look alike come from different tables or passages of the source.

Molecular target: CB1R (Homo sapiens, UniProt P21554)
Experiment: cell-based
Format: binding

CB1R, sequence (P21554 whole entry): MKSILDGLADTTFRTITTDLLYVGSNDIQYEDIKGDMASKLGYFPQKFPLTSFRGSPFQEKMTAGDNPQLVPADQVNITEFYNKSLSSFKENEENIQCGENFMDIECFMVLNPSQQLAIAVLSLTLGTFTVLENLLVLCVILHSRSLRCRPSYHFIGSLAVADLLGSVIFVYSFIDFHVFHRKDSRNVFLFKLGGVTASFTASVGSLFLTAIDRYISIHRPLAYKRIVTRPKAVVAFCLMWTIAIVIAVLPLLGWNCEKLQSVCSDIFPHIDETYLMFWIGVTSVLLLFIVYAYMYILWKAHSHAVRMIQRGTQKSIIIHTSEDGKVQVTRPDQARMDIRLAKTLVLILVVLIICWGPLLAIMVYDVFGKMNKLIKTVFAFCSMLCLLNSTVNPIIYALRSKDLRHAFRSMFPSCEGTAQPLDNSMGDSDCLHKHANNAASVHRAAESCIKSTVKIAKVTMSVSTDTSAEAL

Molecule: N#Cc1c(Oc2cccc(OS(=O)(=O)CCCC(F)(F)F)c2)cccc1C(F)(F)F [Compound 29, 3-[2-cyano-3-(trifluoromethyl)phenoxy]phenyl-4,4,4-trifluoro-1-butanesulfonate]
- pKi: 7.74

Molecule: AM-1248 [Compound 10]
- Ki (read-out: Ki (nM), binding affinity for CB1R, competition with 3 nM [3H]-SR141716A, 6 h at 4°C, Ki=IC50/(1+[D]/Kd)): 104 nM
